Our source for the T/C values is PubChem BioAssay AID328 (DTP/NCI, 2004).

The experiment has as its system BDF1 mice, P388 leukemia ip, median survival T/C. Kind of experiment: NCI In Vivo Anticancer Drug Screen. Data for tumor model P388 Leukemia (intraperitoneal) in B6D2F1 (BDF1) mice. To be noted: endpoint: median survival time, higher = longer survival. The method, boiled down: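 T/C = treated-group survival ÷ vehicle-control survival; tumour transplanted into mice before dosing.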

The mark [1] stands for this setting: dose: 100.0 mg/kg/injection, schedule: Q01DX009 (ip), vehicle: Klucel (hydroxypropylcellulose) (HPC).
Where [2] appears, read: dose: 200.0 mg/kg/injection, schedule: Q01DX009 (ip), vehicle: Klucel (hydroxypropylcellulose) (HPC).
Setting [3] is: dose: 44.0 mg/kg/injection, schedule: Q01DX009 (ip), vehicle: saline with Tween-80.
Where [4] appears, read: dose: 66.0 mg/kg/injection, schedule: Q01DX009 (ip), vehicle: saline with Tween-80.
The mark [5] stands for this setting: dose: 100.0 mg/kg/injection, schedule: Q01DX009 (ip), vehicle: saline with Tween-80.
[6] abbreviates: dose: 100.0 mg/kg/injection, schedule: Q04DX003 (ip), vehicle: saline with Tween-80.
Setting [7] is: dose: 150.0 mg/kg/injection, schedule: Q01DX009 (ip), vehicle: saline with Tween-80.
Where [8] appears, read: dose: 150.0 mg/kg/injection, schedule: Q04DX003 (ip), vehicle: saline with Tween-80.
Setting [9] is: dose: 200.0 mg/kg/injection, schedule: Q04DX003 (ip), vehicle: saline with Tween-80.
Where [10] appears, read: dose: 400.0 mg/kg/injection, schedule: Q04DX003 (ip), vehicle: saline with Tween-80.
[11] abbreviates: dose: 100.0 mg/kg/injection, schedule: Q04DX003 (ip), vehicle: other.
[12] abbreviates: dose: 200.0 mg/kg/injection, schedule: Q04DX003 (ip), vehicle: other.
[13] abbreviates: dose: 50.0 mg/kg/injection, schedule: Q04DX003 (ip), vehicle: saline with Tween-80.
The mark [14] stands for this setting: dose: 50.0 mg/kg/injection, schedule: Q01DX009 (ip), vehicle: Klucel (hydroxypropylcellulose) (HPC).

“And” between values parts separate entries of the source, which are not always exact repeats. Equal values may be shown once. Toxic doses and inconclusive results are not listed.

Consider `O=C1c2ccccc2S(=O)(=O)N1CCN1C(=O)c2ccccc2S1(=O)=O`, for which the T/C under setting [1] was 100 % of control; the T/C (dose: 100.0 mg/kg/injection, schedule: Q04DX003 (ip), vehicle: Klucel (hydroxypropylcellulose) (HPC)) is 95 % of control; the T/C under setting [2] was 100 % of control; the T/C (dose: 200.0 mg/kg/injection, schedule: Q04DX003 (ip), vehicle: Klucel (hydroxypropylcellulose) (HPC)) is 100 % of control; the T/C (dose: 400.0 mg/kg/injection, schedule: Q01DX009 (ip), vehicle: Klucel (hydroxypropylcellulose) (HPC)) is 90 % of control; the T/C (dose: 400.0 mg/kg/injection, schedule: Q04DX003 (ip), vehicle: Klucel (hydroxypropylcellulose) (HPC)) was 100 % of control.

Consider `Nc1cncc2ncc(-c3ccc(Cl)c(Cl)c3)nc12`, for which the T/C is 91 % of control (dose: 100.0 mg/kg/injection, schedule: Q01DX001 (ip), vehicle: saline sonified); 100 % of control (dose: 200.0 mg/kg/injection, schedule: Q01DX001 (ip), vehicle: saline sonified); 104 % of control (dose: 400.0 mg/kg/injection, schedule: Q01DX001 (ip), vehicle: saline sonified).

On to `COc1cc(C2c3cc4c(cc3C(O)C(CO)C2CO)OCO4)cc(OC)c1OC` (stereo not given), for which the T/C (dose: 17.5 mg/kg/injection, schedule: Q01DX009 (ip), vehicle: Klucel (hydroxypropylcellulose) (HPC)) was 176 % of control; the T/C (dose: 35.0 mg/kg/injection, schedule: Q01DX009 (ip), vehicle: Klucel (hydroxypropylcellulose) (HPC)) is 209 % of control; the T/C (dose: 37.5 mg/kg/injection, schedule: Q04DX003 (ip), vehicle: saline sonified) was 109 % of control; the T/C under setting [3] was 150 % of control; the T/C (dose: 44.0 mg/kg/injection, schedule: Q04DX003 (ip), vehicle: saline sonified) was 100 % of control; the T/C under setting [4] is 150 % of control. In addition, the T/C is 105 % of control (dose: 66.0 mg/kg/injection, schedule: Q04DX003 (ip), vehicle: saline sonified); 228 % of control and 159 % of control (dose: 70.0 mg/kg/injection, schedule: Q01DX009 (ip), vehicle: Klucel (hydroxypropylcellulose) (HPC)); 122 % of control (dose: 75.0 mg/kg/injection, schedule: Q04DX003 (ip), vehicle: saline sonified); 209 % of control under setting [5]; 110 % of control (dose: 100.0 mg/kg/injection, schedule: Q04DX003 (ip), vehicle: saline sonified); 160 % of control and 183 % of control under setting [6]. In addition, the T/C (dose: 140.0 mg/kg/injection, schedule: Q01DX009 (ip), vehicle: Klucel (hydroxypropylcellulose) (HPC)) is 172 % of control; the T/C under setting [7] is 159 % of control; the T/C (dose: 150.0 mg/kg/injection, schedule: Q04DX003 (ip), vehicle: saline sonified) was 110 % of control; the T/C under setting [8] was 160 % of control; the T/C under setting [9] was 172 % of control and 191 % of control; the T/C (dose: 225.0 mg/kg/injection, schedule: Q04DX003 (ip), vehicle: saline with Tween-80) was 190 % of control. The T/C reads like this: (dose: 300.0 mg/kg/injection, schedule: Q04DX003 (ip), vehicle: saline sonified) 200 % of control; under setting [10], 200 % of control and 204 % of control.

With `O=C(O)CCCc1ccc(Oc2ccccc2)cc1`, the T/C by setting is: under setting [11], 92 % of control; under setting [12], 93 % of control; (dose: 400.0 mg/kg/injection, schedule: Q04DX003 (ip), vehicle: other) 86 % of control.

Take `Clc1ccc(CN2COc3c(ccc4cccnc34)C2)cc1Cl`: the T/C by setting is: under setting [13], 104 % of control; under setting [6], 104 % of control and 118 % of control; under setting [9], 109 % of control; under setting [10], 120 % of control.

As for `CC1(O)CCC2C3CCC4=CC(=O)CCC4C3CCC21C` (stereo not given), the T/C by setting is: under setting [14], 113 % of control; (dose: 65.0 mg/kg/injection, schedule: Q01DX009 (ip), vehicle: Klucel (hydroxypropylcellulose) (HPC)) 94 % of control; (dose: 66.0 mg/kg/injection, schedule: Q01DX009 (ip), vehicle: Klucel (hydroxypropylcellulose) (HPC)) 95 % of control and 100 % of control; under setting [11], 100 % of control; under setting [2], 100 % of control and 118 % of control; under setting [12], 115 % of control.

As for `CC1=C(C)CC2C(=O)C=CC(=O)C2C1` (stereo not given), the T/C runs as follows: (dose: 12.5 mg/kg/injection, schedule: Q01DX009 (ip), vehicle: water) 95 % of control; (dose: 25.0 mg/kg/injection, schedule: Q01DX009 (ip), vehicle: water) 90 % of control; (dose: 25.0 mg/kg/injection, schedule: Q04DX003 (ip), vehicle: water) 113 % of control; (dose: 50.0 mg/kg/injection, schedule: Q01DX009 (ip), vehicle: water) 93 % of control; (dose: 50.0 mg/kg/injection, schedule: Q04DX003 (ip), vehicle: water) 113 % of control; (dose: 100.0 mg/kg/injection, schedule: Q01DX009 (ip), vehicle: water) 100 % of control. For the setting “dose: 100.0 mg/kg/injection, schedule: Q04DX003 (ip), vehicle: water”, the T/C was 105 % of control and 112 % of control.

On to `O=C(/C=N/O)Nc1cc(Cl)c(Cl)cc1Cl`, for which the T/C runs as follows: (dose: 50.0 mg/kg/injection, schedule: Q01DX009 (ip), vehicle: saline with Tween-80) 109 % of control; under setting [13], 109 % of control; (dose: 75.0 mg/kg/injection, schedule: Q01DX009 (ip), vehicle: saline with Tween-80) 113 % of control; under setting [5], 104 % of control; under setting [6], 100 % of control; under setting [7], 118 % of control. Also, under setting [9], the T/C was 122 % of control.

`N#C/C(=C\c1cc(Cl)cc(Cl)c1O)C(/C(C#N)=C/c1cc(Cl)cc(Cl)c1O)c1ccc2c(c1)OCO2` (stereo not given): the T/C by setting is: under setting [6], 91 % of control; under setting [9], 100 % of control; under setting [10], 108 % of control.

`O=C(Oc1ccc(Cl)cc1)c1ccc(C(=O)Oc2ccc(Cl)cc2)cc1`: the T/C by setting is: (dose: 176.0 mg/kg/injection, schedule: Q04DX003 (ip), vehicle: saline with Tween-80) 90 % of control; (dose: 264.0 mg/kg/injection, schedule: Q04DX003 (ip), vehicle: saline with Tween-80) 100 % of control; under setting [10], 90 % of control.

On to `COc1ccc(/C=C/C(=O)c2ccc3c(c2)OCO3)cc1OC`, for which the T/C under setting [3] is 109 % of control; the T/C (dose: 44.0 mg/kg/injection, schedule: Q04DX003 (ip), vehicle: saline with Tween-80) is 109 % of control; the T/C under setting [4] was 118 % of control; the T/C (dose: 66.0 mg/kg/injection, schedule: Q04DX003 (ip), vehicle: saline with Tween-80) was 109 % of control; the T/C (dose: 88.0 mg/kg/injection, schedule: Q01DX009 (ip), vehicle: saline with Tween-80) was 123 % of control; the T/C under setting [6] is 109 % of control. The T/C is, setting by setting: under setting [8], 109 % of control; (dose: 200.0 mg/kg/injection, schedule: Q01DX009 (ip), vehicle: saline with Tween-80) 157 % of control; (dose: 400.0 mg/kg/injection, schedule: Q01DX009 (ip), vehicle: saline with Tween-80) 194 % of control.

On to `CN(C)C(=O)c1cccc(COc2ccc([N+](=O)[O-])cc2Cl)c1`, for which the T/C runs as follows: (dose: 100.0 mg/kg/injection, schedule: Q01DX001 (ip), vehicle: Klucel (hydroxypropylcellulose) (HPC)) 109 % of control; (dose: 132.0 mg/kg/injection, schedule: Q01DX009 (ip), vehicle: saline sonified) 91 % of control; (dose: 200.0 mg/kg/injection, schedule: Q01DX001 (ip), vehicle: Klucel (hydroxypropylcellulose) (HPC)) 109 % of control; (dose: 200.0 mg/kg/injection, schedule: Q01DX009 (ip), vehicle: saline sonified) 87 % of control; (dose: 300.0 mg/kg/injection, schedule: Q01DX009 (ip), vehicle: saline sonified) 87 % of control; (dose: 400.0 mg/kg/injection, schedule: Q01DX001 (ip), vehicle: Klucel (hydroxypropylcellulose) (HPC)) 104 % of control.

Consider `CCOC(=O)c1c(C)c2c(n1C)CCc1cn[nH]c1-2`, for which the T/C was 103 % of control under setting [14], 120 % of control under setting [1] and 106 % of control under setting [2].
